Results taken from ChEMBL document CHEMBL4028802, “DILIrank: the largest reference drug list ranked by the risk for developing drug-induced liver injury in humans” (Drug Discov Today, 2016).

Columns and labels:
Homo sapiens [1] = species: Homo sapiens; experiment: Liver toxicity in human assessed as induction of drug-induced liver injury by measuring verified drug-induced liver injury concern status
Homo sapiens [2] = species: Homo sapiens; experiment: Liver toxicity in human assessed as induction of drug-induced liver injury by measuring severity class index
For DILI severity class in this document: key of the grades not given here.

| Compound | DILI_Concern (Homo sapiens [1]) | DILI_severity_class (Homo sapiens [2]) |
| --- | --- | --- |
| CC1=C(/C=C/C(C)=C/C=C/C(C)=C\C(=O)O)C(C)(C)CCC1 [ISOTRETINOIN] | Most-Dili-Concern | 5 |
| Nc1nc(/C(=C/CC(=O)O)C(=O)N[C@@H]2C(=O)N3C(C(=O)O)=CCS[C@H]23)cs1 [CEFTIBUTEN] | Ambiguous-Dili-Concern | 3 |
| DALTEPARIN SODIUM | Less-Dili-Concern | 3 |
| CC[C@H](C)C[C@H](C)CCCCCCCCC(=O)N[C@H]1C[C@@H](O)[C@@H](NCCN)NC(=O)[C@@H]2[C@@H](O)CCN2C(=O)[C@H]([C@H](O)CCN)NC(=O)[C@H]([C@H](O)[C@@H](O)c2ccc(O)cc2)NC(=O)[C@@H]2C[C@@H](O)CN2C(=O)[C@H]([C@@H](C)O)NC1=O [CASPOFUNGIN] | Ambiguous-Dili-Concern | 7 |
| O=C(O)Cc1ccccc1Nc1c(Cl)cccc1Cl [DICLOFENAC] | Most-Dili-Concern | 8 |
| O=C(CCCCCCC(=O)Nc1ccccc1)NO [VORINOSTAT] | No-Dili-Concern | 0 |
| COc1cc(C(=O)NS(=O)(=O)c2ccccc2C)ccc1Cc1cn(C)c2ccc(NC(=O)OC3CCCC3)cc12 [ZAFIRLUKAST] | Most-Dili-Concern | 8 |
| CC(=O)Oc1ccc(C(c2ccc(OC(C)=O)cc2)c2ccccn2)cc1 [BISACODYL] | No-Dili-Concern | 0 |
| Cc1cccc(C)c1NC(=O)C1CCCCN1C (configuration not stated) [MEPIVACAINE] | No-Dili-Concern | 0 |
| CC(=O)Oc1ccc(C(=C2CCCCC2)c2ccc(OC(C)=O)cc2)cc1 [CYCLOFENIL] | Most-Dili-Concern | 8 |
| OC[C@H]1O[C@@H](O[C@@H]2[C@@H](CO)O[C@](O)(CO)[C@H]2O)[C@H](O)[C@@H](O)[C@H]1O [LACTULOSE] | No-Dili-Concern | 0 |
| Cc1cc(Br)c(O)c2ncccc12 [TILBROQUINOL] | Most-Dili-Concern | 8 |
| O=S(=O)(O)O[C@@H]1[C@@H](OS(=O)(=O)O)[C@H](O[C@@H]2CO[C@@H](O)[C@H](OS(=O)(=O)O)[C@H]2OS(=O)(=O)O)OC[C@H]1O | Ambiguous-Dili-Concern | 3 |
| CN(C)C(=N)N=C(N)N [METFORMIN] | Less-Dili-Concern | 0 |
| CN(C)/N=N/c1[nH]cnc1C(N)=O [DACARBAZINE] | Most-Dili-Concern | 6 |
| COc1ccc(C(CN(C)C)C2(O)CCCCC2)cc1 (configuration not stated) [VENLAFAXINE] | Less-Dili-Concern | 7 |
| CCN(CC)CCOC(=O)C1(C2CCCCC2)CCCCC1 [DICYCLOMINE] | No-Dili-Concern | 0 |
| CCOc1ccc2ccccc2c1C(=O)N[C@@H]1C(=O)N2[C@@H]1SC(C)(C)[C@@H]2C(=O)O [NAFCILLIN] | Less-Dili-Concern | 3 |
| O=C(O)c1cn(C2CC2)c2cc(N3CCNCC3)c(F)cc2c1=O [CIPROFLOXACIN] | Most-Dili-Concern | 7 |

| Compound | DILI_Concern (Homo sapiens [1]) | DILI_severity_class (Homo sapiens [2]) |
| --- | --- | --- |
| CC(C)OC(=O)C(C)(C)Oc1ccc(C(=O)c2ccc(Cl)cc2)cc1 [FENOFIBRATE] | Less-Dili-Concern | 3 |
| C[C@H](/C=C/[C@H](C)C(C)(C)O)[C@H]1CC[C@H]2/C(=C/C=C3C[C@@H](O)C[C@H](O)C3)CCC[C@]12C [PARICALCITOL] | Ambiguous-Dili-Concern | 3 |
| CC(C)C[C@H](NC(=O)[C@@H](COC(C)(C)C)NC(=O)[C@H](Cc1ccc(O)cc1)NC(=O)[C@H](CO)NC(=O)[C@H](Cc1c[nH]c2ccccc12)NC(=O)[C@H](Cc1cnc[nH]1)NC(=O)[C@@H]1CCC(=O)N1)C(=O)N[C@@H](CCCNC(=N)N)C(=O)N1CCC[C@H]1C(=O)NNC(N)=O [GOSERELIN] | Ambiguous-Dili-Concern | 3 |
| CCCNCC(O)COc1ccccc1C(=O)CCc1ccccc1 (configuration not stated) [PROPAFENONE] | Less-Dili-Concern | 3 |
| CCCc1nn(C)c2c(=O)[nH]c(-c3cc(S(=O)(=O)N4CCN(C)CC4)ccc3OCC)nc12 | Less-Dili-Concern | 3 |
| H-SEEPPISLDLTFHLLREVLEMARAEQLAQQAHSNRKMLEII-OH | No-Dili-Concern | 0 |
| CCCCCCCCCC(=O)N[C@@H](Cc1c[nH]c2ccccc12)C(=O)N[C@H](CC(N)=O)C(=O)N[C@@H](CC(=O)O)C(=O)N[C@@H]1C(=O)NCC(=O)N[C@@H](CCCN)C(=O)N[C@@H](CC(=O)O)C(=O)N[C@H](C)C(=O)N[C@@H](CC(=O)O)C(=O)NCC(=O)N[C@H](CO)C(=O)N[C@@H]([C@H](C)CC(=O)O)C(=O)N[C@@H](CC(=O)c2ccccc2N)C(=O)O[C@@H]1C [DAPTOMYCIN] | Less-Dili-Concern | 5 |
| COCCOC(=O)C1=C(C)NC(C)=C(C(=O)OC(C)C)C1c1cccc([N+](=O)[O-])c1 (configuration not stated) [NIMODIPINE] | Ambiguous-Dili-Concern | 3 |
| CC(COc1ccccc1)N(CCCl)Cc1ccccc1 (configuration not stated) [PHENOXYBENZAMINE] | No-Dili-Concern | 0 |
| Cc1nc(-c2ccc(OCC(C)C)c(C#N)c2)sc1C(=O)O [FEBUXOSTAT] | Most-Dili-Concern | 8 |
| CCCCN1C(=O)[C@@H]([C@H](O)C2CCCCC2)NC(=O)C12CCN(Cc1ccc(Oc3ccc(C(=O)O)cc3)cc1)CC2 [APLAVIROC] | Most-Dili-Concern | 8 |
| CCCCCNC(=N)N/N=C/c1c[nH]c2ccc(OC)cc12 [TEGASEROD] | Ambiguous-Dili-Concern | 3 |
| CCOc1cc(CC(=O)N[C@@H](CC(C)C)c2ccccc2N2CCCCC2)ccc1C(=O)O [REPAGLINIDE] | Less-Dili-Concern | 5 |
| C[C@]12CC[C@@H]3c4ccc(O)cc4C[C@@H](CCCCCCCCC[S+]([O-])CCCC(F)(F)C(F)(F)F)[C@H]3[C@@H]1CC[C@@H]2O (some centres not stated) [FULVESTRANT] | Ambiguous-Dili-Concern | 7 |
| Nc1nc2[nH]cc(CCc3ccc(C(=O)N[C@@H](CCC(=O)O)C(=O)O)cc3)c2c(=O)[nH]1 [PEMETREXED] | Ambiguous-Dili-Concern | 3 |
| Cc1nnc2n1-c1ccc(Cl)cc1C(c1ccccc1Cl)=NC2 [TRIAZOLAM] | Ambiguous-Dili-Concern | 4 |
| NC(=O)N1c2ccccc2C=Cc2ccccc21 [CARBAMAZEPINE] | Most-Dili-Concern | 7 |
| C=C1CC[C@H](O)C/C1=C/C=C1\CCC[C@]2(C)[C@@H]([C@H](C)/C=C/[C@H](C)C(C)C)CC[C@@H]12 [ERGOCALCIFEROL] | No-Dili-Concern | 0 |
| O=C(O[C@H]1CN2CCC1CC2)N1CCc2ccccc2[C@@H]1c1ccccc1 [SOLIFENACIN] | Ambiguous-Dili-Concern | 3 |

| Compound | DILI_Concern (Homo sapiens [1]) | DILI_severity_class (Homo sapiens [2]) |
| --- | --- | --- |
| CC(=O)CC(c1ccccc1)c1c(O)c2ccccc2oc1=O (configuration not stated) [WARFARIN] | Less-Dili-Concern | 5 |
| O=C(O)c1cc(-c2ccccc2)nc2ccccc12 [CINCHOPHEN] | Most-Dili-Concern | 8 |
| CC(C)c1cccc(C(C)C)c1O [PROPOFOL] | Less-Dili-Concern | 3 |
| CC1(C)O[C@@H]2[C@@H](CO[C@@]3(COS(N)(=O)=O)OC(C)(C)O[C@@H]23)O1 [TOPIRAMATE] | Less-Dili-Concern | 3 |
| CS(=O)(=O)Nc1ccc([N+](=O)[O-])cc1Oc1ccccc1 [NIMESULIDE] | Most-Dili-Concern | 8 |
| CCCN[C@H]1CCc2nc(N)sc2C1 [PRAMIPEXOLE] | Ambiguous-Dili-Concern | 2 |
| NCCc1ccc(O)c(O)c1 [DOPAMINE] | No-Dili-Concern | 0 |
| Nc1nc2ncc(CNc3ccc(C(=O)N[C@@H](CCC(=O)O)C(=O)O)cc3)nc2c(=O)[nH]1 [FOLIC ACID] | No-Dili-Concern | 0 |
| CC(C)(C)NC(=O)[C@@H]1C[C@@H]2CCCC[C@@H]2CN1C[C@@H](O)[C@H](Cc1ccccc1)NC(=O)[C@H](CC(N)=O)NC(=O)c1ccc2ccccc2n1 | Less-Dili-Concern | 3 |
| Cc1ccnc2c1NC(=O)c1cccnc1N2C1CC1 [NEVIRAPINE] | Most-Dili-Concern | 8 |
| CC1CNc2c(cccc2S(=O)(=O)N[C@@H](CCCNC(=N)N)C(=O)N2CC[C@@H](C)C[C@@H]2C(=O)O)C1 (some centres not stated) [ARGATROBAN] | No-Dili-Concern | 0 |
| COCCCC/C(=N\OCCN)c1ccc(C(F)(F)F)cc1 [FLUVOXAMINE] | Ambiguous-Dili-Concern | 3 |
| Nc1nc(=O)c2c([nH]1)NCC(CNc1ccc(C(=O)N[C@@H](CCC(=O)[O-])C(=O)[O-])cc1)N2C=O.[Ca+2] (some centres not stated) [LEUCOVORIN CALCIUM] | No-Dili-Concern | 0 |
| CCC[C@H](N[C@@H](C)C(=O)N1[C@H](C(=O)O)C[C@@H]2CCCC[C@@H]21)C(=O)OCC [PERINDOPRIL] | Ambiguous-Dili-Concern | 3 |
| CC[C@H]1OC(=O)[C@H](C)C(=O)[C@H](C)[C@@H](O[C@@H]2O[C@H](C)C[C@H](N(C)C)[C@H]2O)[C@](C)(OC)C[C@@H](C)C(=O)[C@H](C)[C@H]2N(CCCCn3cnc(-c4cccnc4)c3)C(=O)O[C@]12C [TELITHROMYCIN] | Most-Dili-Concern | 8 |
| Cl.NCCNCCNCCN | No-Dili-Concern | 1 |
| N[C@@H]1CON=C1O [CYCLOSERINE] | Ambiguous-Dili-Concern | 3 |
| Cc1cn([C@H]2C=C[C@@H](CO)O2)c(=O)[nH]c1=O [STAVUDINE] | Most-Dili-Concern | 8 |
